Results published in ChEMBL document CHEMBL4400547 (J Med Chem, 2019).
≈ marks a conversion by molar mass, not a printed value. Calls of active or inactive are those of the source. No cut-off for these calls is given here.

Assays:
[1] = target: T1, Serine/threonine-protein kinase/endoribonuclease IRE1 (Homo sapiens, UniProt O75460); assay: Inhibition of dephosphorylated IRE1alpha (G547 to L977 residues) (unknown origin) autophosphorylation at S724 after 25 mins in presence of ATP by dissociation-enhanced lanthanide fluorescence immunoassay
Target sequence in this assay (O75460 whole entry, the tested form may be a part): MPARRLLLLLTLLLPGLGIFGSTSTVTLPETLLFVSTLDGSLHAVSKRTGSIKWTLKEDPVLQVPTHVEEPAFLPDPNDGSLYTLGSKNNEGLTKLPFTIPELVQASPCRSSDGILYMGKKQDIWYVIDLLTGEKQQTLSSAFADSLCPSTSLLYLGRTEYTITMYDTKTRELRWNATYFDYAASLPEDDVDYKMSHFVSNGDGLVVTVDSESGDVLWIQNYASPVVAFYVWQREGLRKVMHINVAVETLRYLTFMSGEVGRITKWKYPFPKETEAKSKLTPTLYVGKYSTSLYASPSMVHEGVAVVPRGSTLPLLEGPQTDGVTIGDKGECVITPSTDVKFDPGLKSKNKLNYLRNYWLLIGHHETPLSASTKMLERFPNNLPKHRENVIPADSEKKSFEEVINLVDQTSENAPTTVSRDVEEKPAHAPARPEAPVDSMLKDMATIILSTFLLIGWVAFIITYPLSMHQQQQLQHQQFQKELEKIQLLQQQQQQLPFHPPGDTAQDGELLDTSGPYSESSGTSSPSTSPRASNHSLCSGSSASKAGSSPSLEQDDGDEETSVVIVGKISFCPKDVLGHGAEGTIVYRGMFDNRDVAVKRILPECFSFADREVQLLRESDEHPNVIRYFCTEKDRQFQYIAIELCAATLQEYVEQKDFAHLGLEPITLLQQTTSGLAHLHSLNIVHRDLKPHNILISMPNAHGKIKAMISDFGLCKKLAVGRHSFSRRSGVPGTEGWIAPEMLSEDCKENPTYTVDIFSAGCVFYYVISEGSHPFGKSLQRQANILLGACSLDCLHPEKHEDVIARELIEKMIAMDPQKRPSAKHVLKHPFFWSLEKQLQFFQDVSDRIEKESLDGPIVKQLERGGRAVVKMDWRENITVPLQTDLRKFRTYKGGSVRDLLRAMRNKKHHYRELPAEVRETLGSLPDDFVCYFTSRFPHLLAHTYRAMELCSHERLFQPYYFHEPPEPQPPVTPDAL

[2] = target: T1, Serine/threonine-protein kinase/endoribonuclease IRE1; assay: Displacement for LanthaScreen tracer from dephosphorylated IRE1alpha (G547 to L977 residues) (unknown origin) ATP binding site […] after 60 mins by FRET assay
Target sequence in this assay (O75460 whole entry, the tested form may be a part): as above

[3] = Distribution coefficient, log D of the compound at pH 7.4; type: physicochemical; conditions: octanol/water
physchem = conditions: buffer
Description: Aqueous kinetic solubility of the compound

[4] = target: Cyclin-dependent kinase 17 (Homo sapiens) (UniProt Q00537); assay: Inhibition of recombinant human GST-tagged PCTK2 expressed in baculovirus expression system at 1 uM by kinomescan assay relative to control
HEK293 = assay: cells; conditions: Homo sapiens
Description: Cytotoxicity against HEK293 cells co-expressing XBP1u-mRNA by luciferase reporter gene assay

[5] = target: T1, Serine/threonine-protein kinase/endoribonuclease IRE1; assay: Inhibition of dephosphorylated IRE1alpha (G547 to L977 residues) (unknown origin) -dependent cleavage of FAM-labeled stem-loop RNA containing the XBP1 cleavage site preincubated for 30 mins followed by RNA XBP1 substrate addition and measured after 15 mins by FRET assay
Target sequence in this assay (O75460 whole entry, the tested form may be a part): as above

[6] = target: T1, Serine/threonine-protein kinase/endoribonuclease IRE1; assay: Inhibition of tunicamycin-induced GFP-fused IRE1alpha (unknown origin) oligomerization expressed in HEK293 cells assessed as reduction in fluorescent foci formation after 5 hrs by fluorescence based assay; type: cell-based
Target sequence in this assay (O75460 whole entry, the tested form may be a part): as above

[7] = target: T1, Serine/threonine-protein kinase/endoribonuclease IRE1; assay: Inhibition of tunicamycin-induced IRE1alpha (unknown origin) expressed in HEK293 cells assessed as reduction in IRE1alpha-dependent splicing of XBP1u-luciferase mRNA by luciferase reporter gene assay; type: cell-based
Target sequence in this assay (O75460 whole entry, the tested form may be a part): as above

[8] = target: T1, Serine/threonine-protein kinase/endoribonuclease IRE1; assay: Inhibition of thapsigargin-induced IRE1alpha (unknown origin) expressed in HEK293 cells assessed as reduction in IRE1alpha-dependent splicing of XBP1u-luciferase mRNA by luciferase reporter gene assay; type: cell-based
Target sequence in this assay (O75460 whole entry, the tested form may be a part): as above

[9] = target: Dual specificity protein kinase CLK2 (Homo sapiens) (UniProt P49760); assay: Inhibition of recombinant human GST-tagged CLK2 expressed in baculovirus expression system at 1 uM by kinomescan assay relative to control
[10] = target: Homeodomain-interacting protein kinase 4 (Homo sapiens) (UniProt Q8NE63); assay: Inhibition of recombinant human His-tagged HIPK4 expressed in baculovirus expression system at 1 uM by kinomescan assay relative to control
[11] = test system: Receptor-type tyrosine-protein kinase FLT3 (Homo sapiens), P36888 [N841I]; assay: Inhibition of recombinant human His-tagged FLT3 […] mutant expressed in baculovirus expression system at 1 uM by kinomescan assay relative to control
[12] = test system: Mast/stem cell growth factor receptor Kit (Homo sapiens), P10721 [V559D]; assay: Inhibition of recombinant human His-tagged KIT V559D mutant expressed in baculovirus expression system at 1 uM by kinomescan assay relative to control
[13] = test system: Receptor-type tyrosine-protein kinase FLT3 (Homo sapiens), P36888 [K663Q]; assay: Inhibition of recombinant human His-tagged FLT3 K663Q mutant expressed in baculovirus expression system at 1 uM by kinomescan assay relative to control
[14] = target: Dual specificity tyrosine-phosphorylation-regulated kinase 1A (Homo sapiens) (UniProt Q13627); assay: Inhibition of recombinant full length human GST-tagged DYRK1A expressed in baculovirus expression system at 1 uM by kinomescan assay relative to control
[15] = target: Dual specificity protein kinase CLK4 (Homo sapiens) (UniProt Q9HAZ1); assay: Inhibition of recombinant full length human GST-tagged CLK4 expressed in baculovirus expression system at 1 uM by kinomescan assay relative to control
[16] = target: Dual specificity tyrosine-phosphorylation-regulated kinase 1B (Homo sapiens) (UniProt Q9Y463); assay: Inhibition of recombinant full length human GST-tagged DYRK1B expressed in baculovirus expression system at 1 uM by kinomescan assay relative to control
[17] = target: Dual specificity protein kinase CLK1 (Homo sapiens) (UniProt P49759); assay: Inhibition of recombinant human GST-tagged CLK1 expressed in Escherichia coli at 1 uM by kinomescan assay relative to control
[18] = test system: Mast/stem cell growth factor receptor Kit (Homo sapiens), P10721 [L576P]; assay: Inhibition of recombinant human His-tagged KIT L576P mutant expressed in baculovirus expression system at 1 uM by kinomescan assay relative to control
[19] = target: Platelet-derived growth factor receptor beta (Homo sapiens) (UniProt P09619); assay: Inhibition of recombinant human His-tagged PDGFRB expressed in baculovirus expression system at 1 uM by kinomescan assay relative to control
[20] = test system: Receptor-type tyrosine-protein kinase FLT3 (Homo sapiens), P36888 [D835Y]; assay: Inhibition of recombinant human His-tagged FLT3 D835Y mutant expressed in baculovirus expression system at 1 uM by kinomescan assay relative to control
[21] = target: Mast/stem cell growth factor receptor Kit (Homo sapiens) (UniProt P10721); assay: Inhibition of recombinant human His-tagged KIT expressed in baculovirus expression system at 1 uM by kinomescan assay relative to control
[22] = test system: Receptor-type tyrosine-protein kinase FLT3 (Homo sapiens), P36888 [UNDEFINED MUTATION]; assay: Inhibition of recombinant human His-tagged FLT3 ITD mutant expressed in baculovirus expression system at 1 uM by kinomescan assay relative to control
[23] = target: Receptor-type tyrosine-protein kinase FLT3 (Homo sapiens) (UniProt P36888); assay: Inhibition of recombinant human His-tagged FLT3 expressed in baculovirus expression system at 1 uM by kinomescan assay relative to control
[24] = target: Homeodomain-interacting protein kinase 1 (Homo sapiens) (UniProt Q86Z02); assay: Inhibition of recombinant human GST-tagged HIPK1 expressed in baculovirus expression system at 1 uM by kinomescan assay relative to control
[25] = test system: Tyrosine-protein kinase ABL1 (Homo sapiens), P00519 [F317I]; assay: Inhibition of phosphorylated recombinant human His-tagged ABL1 F317I mutant expressed in baculovirus expression system at 1 uM by kinomescan assay relative to control
Homo sapiens = species: Homo sapiens; assay: Inhibition of recombinant human His-tagged FLT3 ITD/D835V double mutant expressed in baculovirus expression system at 1 uM by kinomescan assay relative to control
[26] = target: T1, Serine/threonine-protein kinase/endoribonuclease IRE1; assay: Inhibition of tunicamycin-induced IRE1alpha-dependent splicing of XBP1s-mRNA transcription in human H929 cells assessed as reduction in […] mRNA expression in at 0.5 to 10 uM by RT-qPCR analysis; type: cell-based
[27] = target: Myosin light chain kinase, smooth muscle (Homo sapiens) (UniProt Q15746); assay: Inhibition of recombinant human GST-tagged MLCK expressed in baculovirus expression system at 1 uM by kinomescan assay relative to control
[28] = test system: Receptor-type tyrosine-protein kinase FLT3 (Homo sapiens), P36888 [R834Q]; assay: Inhibition of recombinant human His-tagged FLT3 R834Q mutant expressed in baculovirus expression system at 1 uM by kinomescan assay relative to control
[29] = test system: Receptor-type tyrosine-protein kinase FLT3 (Homo sapiens), P36888 [D835V]; assay: Inhibition of recombinant human His-tagged FLT3 D835V mutant expressed in baculovirus expression system at 1 uM by kinomescan assay relative to control
[30] = test system: Receptor-type tyrosine-protein kinase FLT3 (Homo sapiens), P36888 [D835H]; assay: Inhibition of recombinant human His-tagged FLT3 D835H mutant expressed in baculovirus expression system at 1 uM by kinomescan assay relative to control
[31] = target: Homeodomain-interacting protein kinase 2 (Homo sapiens) (UniProt Q9H2X6); assay: Inhibition of recombinant human N-terminal GST-tagged HIPK2 expressed in baculovirus expression system at 1 uM by kinomescan assay relative to control
[32] = test system: Mast/stem cell growth factor receptor Kit (Homo sapiens), P10721 [V559D,T670I]; assay: Inhibition of recombinant human His-tagged KIT V559D/T670I double mutant expressed in baculovirus expression system at 1 uM by kinomescan assay relative to control
[33] = target: Cyclin-G-associated kinase (Homo sapiens) (UniProt O14976); assay: Inhibition of recombinant human GST-tagged GAK (1 to 396 residues) expressed in insect cell expression system at 1 uM by kinomescan assay relative to control
[34] = target: Homeodomain-interacting protein kinase 3 (Homo sapiens) (UniProt Q9H422); assay: Inhibition of recombinant human His-tagged HIPK3 expressed in baculovirus expression system at 1 uM by kinomescan assay relative to control
[35] = test system: Tyrosine-protein kinase ABL1 (Homo sapiens), P00519 [F317L]; assay: Inhibition of phosphorylated recombinant human His-tagged ABL1 F317L mutant expressed in baculovirus expression system at 1 uM by kinomescan assay relative to control
[36] = test system: Mast/stem cell growth factor receptor Kit (Homo sapiens), P10721 [V559D,V654A]; assay: Inhibition of recombinant human His-tagged KIT V559D/V654A double mutant expressed in baculovirus expression system at 1 uM by kinomescan assay relative to control
[37] = target: Platelet-derived growth factor receptor alpha (Homo sapiens) (UniProt P16234); assay: Inhibition of recombinant human GST-tagged PDGFRA expressed in baculovirus expression system at 1 uM by kinomescan assay relative to control
[38] = target: Dual specificity tyrosine-phosphorylation-regulated kinase 2 (Homo sapiens) (UniProt Q92630); assay: Inhibition of recombinant human GST-tagged DYRK2 at 1 uM by kinomescan assay relative to control
[39] = target: Receptor-type tyrosine-protein kinase FLT3 (Homo sapiens) (UniProt P36888); assay: Inhibition of auto-inhibited recombinant human His-tagged FLT3 expressed in baculovirus expression system at 1 uM by kinomescan assay relative to control

Dual specificity protein kinase CLK1 (Homo sapiens), sequence (P49759 whole entry, looked up): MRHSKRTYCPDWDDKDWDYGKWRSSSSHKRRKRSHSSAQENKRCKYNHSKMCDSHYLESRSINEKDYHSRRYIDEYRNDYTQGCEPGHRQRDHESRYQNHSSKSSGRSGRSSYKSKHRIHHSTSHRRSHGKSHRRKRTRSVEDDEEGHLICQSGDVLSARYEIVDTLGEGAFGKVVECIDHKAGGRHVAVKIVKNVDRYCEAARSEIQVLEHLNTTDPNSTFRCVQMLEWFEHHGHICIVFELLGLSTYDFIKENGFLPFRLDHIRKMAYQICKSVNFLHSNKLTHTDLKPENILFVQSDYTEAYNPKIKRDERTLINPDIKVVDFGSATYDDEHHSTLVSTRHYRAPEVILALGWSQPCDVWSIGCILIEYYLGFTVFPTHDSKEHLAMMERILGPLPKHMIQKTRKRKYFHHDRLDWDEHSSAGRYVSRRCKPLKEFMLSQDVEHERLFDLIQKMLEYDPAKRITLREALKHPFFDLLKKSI
Mast/stem cell growth factor receptor Kit (Homo sapiens), P10721 [V559D], sequence (P10721 whole entry V559D): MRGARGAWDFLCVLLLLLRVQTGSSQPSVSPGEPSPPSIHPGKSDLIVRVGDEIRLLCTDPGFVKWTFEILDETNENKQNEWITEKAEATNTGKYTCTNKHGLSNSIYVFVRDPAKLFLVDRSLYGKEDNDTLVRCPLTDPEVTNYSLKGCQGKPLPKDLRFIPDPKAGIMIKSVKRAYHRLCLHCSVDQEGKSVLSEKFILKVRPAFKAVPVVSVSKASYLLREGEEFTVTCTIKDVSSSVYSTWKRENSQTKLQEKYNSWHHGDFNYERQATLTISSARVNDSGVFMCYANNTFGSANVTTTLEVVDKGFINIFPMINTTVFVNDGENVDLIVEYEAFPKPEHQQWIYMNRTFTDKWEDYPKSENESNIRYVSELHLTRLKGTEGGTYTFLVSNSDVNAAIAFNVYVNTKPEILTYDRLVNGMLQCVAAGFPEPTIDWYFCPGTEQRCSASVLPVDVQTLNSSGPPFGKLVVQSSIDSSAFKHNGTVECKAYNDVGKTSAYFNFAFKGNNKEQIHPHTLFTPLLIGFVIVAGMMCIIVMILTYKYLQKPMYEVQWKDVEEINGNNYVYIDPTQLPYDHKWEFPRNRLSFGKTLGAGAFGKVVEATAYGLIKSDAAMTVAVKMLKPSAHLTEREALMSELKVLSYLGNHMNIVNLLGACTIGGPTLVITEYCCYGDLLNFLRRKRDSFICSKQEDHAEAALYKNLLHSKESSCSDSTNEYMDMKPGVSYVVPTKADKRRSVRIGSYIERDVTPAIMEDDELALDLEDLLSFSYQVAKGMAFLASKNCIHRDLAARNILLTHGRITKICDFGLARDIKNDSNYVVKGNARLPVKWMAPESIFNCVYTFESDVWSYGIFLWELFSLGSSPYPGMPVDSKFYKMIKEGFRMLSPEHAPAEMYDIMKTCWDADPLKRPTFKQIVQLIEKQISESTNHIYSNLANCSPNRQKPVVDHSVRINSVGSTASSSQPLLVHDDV
Dual specificity protein kinase CLK2 (Homo sapiens), sequence (P49760 whole entry, looked up): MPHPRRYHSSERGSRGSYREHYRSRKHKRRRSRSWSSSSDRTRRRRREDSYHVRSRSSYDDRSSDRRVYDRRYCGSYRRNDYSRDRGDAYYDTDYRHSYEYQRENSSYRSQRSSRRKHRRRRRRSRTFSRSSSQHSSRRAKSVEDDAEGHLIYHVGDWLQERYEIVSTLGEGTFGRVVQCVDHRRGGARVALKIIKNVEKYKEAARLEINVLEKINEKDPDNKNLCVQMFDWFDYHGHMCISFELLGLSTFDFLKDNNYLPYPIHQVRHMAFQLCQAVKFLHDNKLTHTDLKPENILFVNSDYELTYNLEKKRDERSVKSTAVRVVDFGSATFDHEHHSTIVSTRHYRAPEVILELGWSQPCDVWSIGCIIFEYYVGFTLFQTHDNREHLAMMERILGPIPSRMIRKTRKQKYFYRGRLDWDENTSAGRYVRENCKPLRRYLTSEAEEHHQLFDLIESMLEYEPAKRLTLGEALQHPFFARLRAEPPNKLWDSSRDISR
Cyclin-dependent kinase 17 (Homo sapiens), sequence (Q00537 whole entry, looked up): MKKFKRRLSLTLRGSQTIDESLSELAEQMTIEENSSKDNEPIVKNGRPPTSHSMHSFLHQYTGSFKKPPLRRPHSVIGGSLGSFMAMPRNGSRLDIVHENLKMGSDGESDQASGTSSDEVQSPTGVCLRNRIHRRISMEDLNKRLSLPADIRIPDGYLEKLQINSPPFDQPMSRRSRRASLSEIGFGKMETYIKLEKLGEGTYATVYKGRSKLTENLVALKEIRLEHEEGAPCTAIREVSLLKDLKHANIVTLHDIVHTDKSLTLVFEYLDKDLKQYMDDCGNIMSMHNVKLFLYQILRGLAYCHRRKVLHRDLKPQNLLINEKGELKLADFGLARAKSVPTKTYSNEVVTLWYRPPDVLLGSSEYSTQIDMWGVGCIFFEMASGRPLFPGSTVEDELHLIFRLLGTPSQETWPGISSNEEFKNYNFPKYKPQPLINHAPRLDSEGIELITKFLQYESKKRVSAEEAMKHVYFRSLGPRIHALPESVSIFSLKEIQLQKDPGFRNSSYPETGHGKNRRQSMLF
Dual specificity protein kinase CLK4 (Homo sapiens), sequence (Q9HAZ1 whole entry, looked up): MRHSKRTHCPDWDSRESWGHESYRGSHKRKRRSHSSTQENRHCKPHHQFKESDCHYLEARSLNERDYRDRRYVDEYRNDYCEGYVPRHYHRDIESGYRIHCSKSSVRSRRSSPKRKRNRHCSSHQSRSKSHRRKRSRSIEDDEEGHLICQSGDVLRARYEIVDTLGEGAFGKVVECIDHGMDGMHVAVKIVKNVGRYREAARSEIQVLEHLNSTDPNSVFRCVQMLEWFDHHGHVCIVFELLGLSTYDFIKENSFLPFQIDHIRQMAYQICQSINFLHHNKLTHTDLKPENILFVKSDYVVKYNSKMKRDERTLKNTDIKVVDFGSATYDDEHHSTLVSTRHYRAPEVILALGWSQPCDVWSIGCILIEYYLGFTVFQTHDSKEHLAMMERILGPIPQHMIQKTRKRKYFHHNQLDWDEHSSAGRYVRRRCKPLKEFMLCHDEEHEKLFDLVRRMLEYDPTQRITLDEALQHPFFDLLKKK
Dual specificity tyrosine-phosphorylation-regulated kinase 1B (Homo sapiens), sequence (Q9Y463 whole entry, looked up): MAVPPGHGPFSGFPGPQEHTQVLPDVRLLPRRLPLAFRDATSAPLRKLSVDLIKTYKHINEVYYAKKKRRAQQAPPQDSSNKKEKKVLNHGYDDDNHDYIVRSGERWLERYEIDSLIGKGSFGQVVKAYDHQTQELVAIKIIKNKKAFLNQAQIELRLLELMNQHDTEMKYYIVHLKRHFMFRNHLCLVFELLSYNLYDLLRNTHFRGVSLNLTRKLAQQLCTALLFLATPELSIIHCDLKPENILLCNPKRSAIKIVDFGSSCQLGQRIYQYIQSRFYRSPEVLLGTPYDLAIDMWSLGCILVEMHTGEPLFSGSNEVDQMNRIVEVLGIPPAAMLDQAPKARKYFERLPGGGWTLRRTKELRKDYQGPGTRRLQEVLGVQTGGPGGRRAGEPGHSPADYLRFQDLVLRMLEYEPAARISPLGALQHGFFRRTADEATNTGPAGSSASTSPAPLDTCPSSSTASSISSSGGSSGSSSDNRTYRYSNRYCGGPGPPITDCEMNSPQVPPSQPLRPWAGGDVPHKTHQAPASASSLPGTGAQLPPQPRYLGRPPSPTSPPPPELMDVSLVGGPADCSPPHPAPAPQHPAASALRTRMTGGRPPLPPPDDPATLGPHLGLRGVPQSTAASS

## Clc1cc(NCC2CC2)c2ncc(-c3ccc4cn[nH]c4c3)n2n1
[1]
  IC50: > 10 µM
[2]
  IC50: > 10 µM

## Clc1cc(NCC2CC2)c2ncc(-c3ccc4[nH]c(Nc5ccccc5)nc4c3)n2n1
[3]
  logD: 4.1
physchem
  solubility kinetic: 2.9 µM (≈ 1.25 µg/mL)

## Cn1c(Nc2ccccc2)nc2cc(-c3cnc4c(NCC5CC5)cc(Cl)nn34)ccc21
[1]
  IC50: > 10 µM
[2]
  IC50: > 10 µM

## CN(c1ccccc1)c1nc2cc(-c3cnc4c(NCC5CC5)cc(Cl)nn34)ccc2[nH]1
[1]
  IC50: > 10 µM
[2]
  IC50: > 10 µM

## CN1CCC(CNc2cc(Cl)nn3c(-c4cc5nc(Nc6ccccc6)[nH]c5cc4F)cnc23)CC1
[4]
  inhibition: > 90%
[1]
  IC50: 0.16 µM
HEK293
  EC50: 9 µM
[2]
  IC50: 0.27 µM
[5]
  IC50: 0.08 µM
[6]
  IC50: 0.74 µM
[7]
  IC50: 0.71 µM
[8]
  IC50: 0.68 to 1.63 µM

## Clc1cc(NC2CCOCC2)c2ncc(-c3ccc4[nH]ncc4c3)n2n1
physchem
  solubility kinetic: 2.2 µM (≈ 0.811 µg/mL)

## Clc1cc(NCC2CC2)c2ncc(-c3ccc4[nH]ncc4c3)n2n1
[9]
  inhibition: > 90%
[10]
  inhibition: > 90%
[11]
  inhibition: > 90%
[3]
  logD: 3.4
[12]
  inhibition: > 90%
[4]
  inhibition: > 90%
[1]
  IC50: 0.303 µM
HEK293
  EC50: > 49 µM
[2]
  IC50: 1.6 µM
[13]
  inhibition: > 90%
[14]
  inhibition: > 90%
[15]
  inhibition: > 90%
physchem
  solubility kinetic: 0.8 µM (≈ 0.271 µg/mL)
[16]
  inhibition: > 90%
[5]
  IC50: 8.9 µM
[17]
  inhibition: > 90%
[18]
  inhibition: > 90%
[19]
  inhibition: > 90%
[20]
  inhibition: > 90%
[21]
  inhibition: > 90%
[22]
  inhibition: > 90%
[7]
  IC50: 4.2 µM
[23]
  inhibition: > 90%

## CN(c1cc(Cl)nn2c(-c3ccc4[nH]ncc4c3)cnc12)[C@H]1CC[C@H](N)CC1
[1]
  IC50: > 10 µM
[2]
  IC50: > 10 µM

## O=C(CN1CCOCC1)N[C@H]1CC[C@H](Nc2cc(Cl)nn3c(-c4ccc5[nH]ncc5c4)cnc23)CC1
[24]
  inhibition: > 90%
[9]
  inhibition: > 90%
[25]
  inhibition: > 90%
Homo sapiens
  inhibition: > 90%
[26]
  inhibition: Active
[10]
  inhibition: > 90%
[11]
  inhibition: > 90%
[27]
  inhibition: > 90%
[28]
  inhibition: > 90%
[29]
  inhibition: > 90%
[12]
  inhibition: > 90%
[30]
  inhibition: > 90%
[31]
  inhibition: > 90%
[1]
  IC50: 0.24 µM
[32]
  inhibition: > 90%
[33]
  inhibition: > 90%
HEK293
  EC50: > 49 µM
[2]
  IC50: 0.087 µM
[14]
  inhibition: > 90%
[15]
  inhibition: > 90%
[34]
  inhibition: > 90%
[16]
  inhibition: > 90%
[5]
  IC50: 0.027 µM
[6]
  IC50: 1.88 µM
[17]
  inhibition: > 90%
[18]
  inhibition: > 90%
[35]
  inhibition: > 90%
[36]
  inhibition: > 90%
[21]
  inhibition: > 90%
[22]
  inhibition: > 90%
[37]
  inhibition: > 90%
[7]
  IC50: 1.12 µM
[38]
  inhibition: > 90%
[23]
  inhibition: > 90%
[39]
  inhibition: > 90%
[8]
  IC50: 0.68 to 1.63 µM

## CN1CCC(Nc2cc(Cl)nn3c(-c4ccc5[nH]ncc5c4)cnc23)CC1
[3]
  logD: 1.8
physchem
  solubility kinetic: 58 µM (≈ 22.1 µg/mL)

## Clc1cc(NC2CCOCC2)c2ncc(-c3ccc4[nH]c(Nc5ccccc5)nc4c3)n2n1
physchem
  solubility kinetic: 2.4 µM (≈ 1.1 µg/mL)

## Cn1ncc2cc(-c3cnc4c(NCC5CC5)cc(Cl)nn34)ccc21
[1]
  IC50: > 10 µM
[2]
  IC50: > 10 µM

## CN1CCC(Nc2cc(Cl)nn3c(-c4ccc5[nH]c(Nc6ccccc6)nc5c4)cnc23)CC1
[3]
  logD: 2.7
physchem
  solubility kinetic: 41 µM (≈ 19.4 µg/mL)
